Article PMC10011573, “Development of novel broad-spectrum antimicrobial lipopeptides derived from plantaricin NC8 β” (Scientific Reports, 2023)
pEC50: −log10 of the molar value. Non-standard residues stand in square brackets, D forms with d. Residues, ends and D or L forms follow the SMILES beside them. *: point of attachment. Heptanoyl = CCCCCCC(=O)*; Hexanoyl = CCCCCC(=O)*

Legend:
E. coli (K-12 MG1655) [1] = format: cell-based; details: Table 6; K-12 MG1655; checkerboard assay, 50:50 PBS/LB-broth, 200 µL
S. aureus (ATCC 29213) = format: cell-based; details: Table 6; ATCC 29213; checkerboard assay, 50:50 PBS/LB-broth, 200 µL
Procedure: The broth microdilution method was used to determine minimal inhibitory concentration (MIC) and minimal bactericidal concentration (MBC), in accordance with the EUCAST standards for the broth microdilution method. […] In brief, two-fold serial dilutions of the lipopeptides were performed in a 96-well plate in PBS, with a final volume of 100 µl per well, after which 100 µl of LB-broth media containing approximately 5 × 10^5 CFU/ml of bacteria was added to each well. The plate was then incubated for 20 h in 37 °C on a shaker (400 rpm). The effect of lipopeptide-antibiotic combinations was investigated by performing checkerboard assays. The assays were performed in accordance with the MIC and MBC tests conducted above, but with horizontal and longitudinal two-fold serial dilutions of the tested compounds. […] The fractional inhibitory concentration (FIC) and fractional bactericidal concentration (FBC) were calculated by the equation (MIC or MBC of peptide in combination/MIC or MBC of peptide alone) + (MIC or MBC of antibiotic in combination/MIC or MBC of antibiotic alone). […] All experiments were repeated at least three times.

[2] = Carboxyfluorescein release assay, bacterial liposome model; format: biochemical; details: 75:25 POPC:POPG liposomes, 25 µM lipid, 10 mM PBS pH 7.4, 10^–5–10^2 µM peptide, 60 min, fluorescence, Hill fit, n = 3; read-out: EC50 Bacterial (concentration that triggers 50% CF release)
Procedure: (§1) Liposomes were prepared by thin-film hydration method. Lipids stock solutions (10 mg/ml in chloroform, Avanti Polar Lipids, Inc., Alabaster, United States) of the lipids 1-palmitoyl-2-oleoyl-sn-glycero-3-phosphocholine (POPC), 1-palmitoyl-2-oleoyl-sn-glycero-3-phospho-L-serine (POPS), 1-Hexadecanoyl-2-(9Z-Octadecenoyl)-sn-Glycero-3-Phosphoglycerol (POPG) and Cholesterol (Chol) were employed. Bacterial liposomes were prepared with a 75:25 ratio of POPC:POPG and mammalian liposomes were prepared with a 65:5:30 ratio of POPC:POPS:Chol. Lipid solutions were thoroughly homogenised, and the solvent was evaporated with the use of a dry N2 steam to yield a lipid cake. […] The lipid film was subsequently hydrated with a 5(6)-CF solution (50 mM CF, 10 mM PBS, 90 mM NaCl, pH 7.4). Following a 10 min incubation on orbital shaker (50 min^−1), the solution was vortexed for 60 s on medium speed. A mini extruder (Avanti Polar Lipids, Inc., United States) was employed and 21 extrusions were performed through a 0.1 µm filter membrane (Nuclepore track-etched hydrophilic membrane, Cytiva, Whatman, MA, United States), resulting in monodispersed unilamellar liposomes. Directly before use the liposomes were purified from unencapsulated CF by filtration through a gel filtration column (PD Minitrap G-25 column, Cytiva, United States), against PBS buffer (10 mM, pH 7.4).
(§2) Peptide and lipopeptide activity towards liposome models were evaluated using a carboxyfluorescein (CF) release assay. Liposomes were diluted in PBS (10 mM, pH 7.4) to a final lipid concentration of 25 µM and incubated with peptides (10^–5–10^2 µM) in a 96-well plate (n = 3). CF release was monitored using an Infinite M1000 PRO plate reader every 2.5 min for 1 h. Full (100%) CF release was obtained by addition of 1% Triton X-100 solution followed by 10 min incubation. CF release percentage was evaluated according to the formula 100 * (F − F0)/(FT − F0), where F indicates the instantaneous fluorescence, FT the total fluorescence and F0 the background fluorescence prior to peptide addition. Data were fitted to a Hill-1 curve using MATLAB R2019a (The MathWorks Inc., Natick, Massachusetts, United States) and the half maximum effective concentration (EC50) was extracted.

[3] = Carboxyfluorescein release assay, mammalian liposome model; format: biochemical; details: 65:5:30 POPC:POPS:Chol. liposomes, 25 µM lipid, 10 mM PBS pH 7.4, 10^–5–10^2 µM peptide, 60 min, fluorescence, Hill fit, n = 3; read-out: EC50 Mammalial (concentration that triggers 50% CF release)
Procedure: as §1, §2

E. coli (K-12 MG1655) [4] = details: Table 3; K-12 MG1655; broth microdilution, 50:50 PBS/LB-broth, 200 µL, 20 h, 37 °C
Procedure: (§3) S. aureus (ATCC 29213, MSSA, ATCC, Manassas, VA), E. coli (K-12 MG1655) and clinical isolates of S. aureus, E. coli, E. faecium, K. pneumoniae, A. baumannii, P. aeruginosa and E. cloacae obtained from the Department of Laboratory Medicine at Örebro University Hospital were streaked on Luria–Bertani (LB) agar plates and incubated at 37 °C overnight. Single colonies were inoculated into 5 ml of LB broth and incubated on a shaker (400 rpm) at 37 °C overnight. The bacterial concentrations were determined by viable count and were adjusted to correlate with approximately 10^9 CFU/ml.
(§4) The broth microdilution method was used to determine minimal inhibitory concentration (MIC) and minimal bactericidal concentration (MBC), in accordance with the EUCAST standards for the broth microdilution method. Two-fold serial dilutions of the lipopeptides were used, and the final concentrations ranged from 0.19 to 100 µM. In brief, two-fold serial dilutions of the lipopeptides were performed in a 96-well plate in PBS, with a final volume of 100 µl per well, after which 100 µl of LB-broth media containing approximately 5 × 10^5 CFU/ml of bacteria was added to each well. The plate was then incubated for 20 h in 37 °C on a shaker (400 rpm). The effect of lipopeptide-antibiotic combinations was investigated by performing checkerboard assays. The assays were performed in accordance with the MIC and MBC tests conducted above, but with horizontal and longitudinal two-fold serial dilutions of the tested compounds. […] The fractional inhibitory concentration (FIC) and fractional bactericidal concentration (FBC) were calculated by the equation (MIC or MBC of peptide in combination/MIC or MBC of peptide alone) + (MIC or MBC of antibiotic in combination/MIC or MBC of antibiotic alone). Synergy was defined as FIC/FBC ≤ 0.5, additive when 0.5 < FIC/FBC ≤ 1, indifferent when 1 < FIC/FBC < 2 and antagonistic when FIC/FBC ≥ 2. All experiments were repeated at least three times.

[5] = system: S. aureus (ATCC 29213, MSSA); details: ATCC 29213, 20 h
Procedure: as §3, §4

human erythrocytes = test: Hemolytic activity; format: cell-based; details: 15% suspension in PBS, 1 h, 37 °C, absorbance 540 nm, highest tested concentration 100 µM
Procedure: The hemolytic activity of the lipopeptides was investigated by collecting blood from healthy volunteers in heparinized vacutainers. Briefly, the blood was centrifuged at 600 × g for 5 min and the erythrocyte pellet was washed three times in PBS. The cells were then suspended in PBS and added to 96-well plates (15% erythrocyte suspension/well), containing the lipopeptides with two-fold serial dilution. The plates were incubated for 1 h at 37 °C followed by centrifugation for 5 min at 900×g and absorbance measurement of the supernatants at 540 nm. Hemolytic activity (%) was calculated by subtracting the negative control from all values and normalization against the positive control (0.5% Triton X-100), that was set to 100%. All experiments, each in duplicate, were repeated three times.

| E. coli MIC, antibiotic alone (E. coli (K-12 MG1655) [1]) | S. aureus MIC, antibiotic alone (S. aureus (ATCC 29213)) | pEC50 [2] | pEC50 [3] | E. coli MIC (E. coli (K-12 MG1655) [4]) | S. aureus MIC [5] | Structure (SMILES) | E. coli MBC, antibiotic alone (E. coli (K-12 MG1655) [1]) | S. aureus MBC, antibiotic alone (S. aureus (ATCC 29213)) | E. coli MBC (E. coli (K-12 MG1655) [4]) | S. aureus MBC [5] | HC, hemolytic concentration at 5% hemolytic activity (human erythrocytes) |
| --- | --- | --- | --- | --- | --- | --- | --- | --- | --- | --- | --- |
| 0.5 µg/mL | – | – | – | – | – | CO/N=C(\C(=O)N[C@@H]1C(=O)N2C(C(=O)O)=C(COC(C)=O)CS[C@H]12)c1csc(N)n1 [Cefotaxim] | 0.5 µg/mL | – | – | – | – |
| 0.125 µg/mL | 0.25 µg/mL | – | – | – | – | O=C(O)c1cn(C2CC2)c2cc(N3CCNCC3)c(F)cc2c1=O [Ciprofloxacin] | 0.125 µg/mL | 0.25 µg/mL | – | – | – |
| – | – | 6.54 | 5.83 | 3.1 µM | 1.5 µM | CCCCCCC(=O)N[C@H](CC(C)C)C(=O)NCC(=O)N[C@@H](C(=O)N[C@H](CCCCN)C(=O)N[C@@H](C(=O)N[C@H](CC(C)C)C(=O)N[C@H](Cc1c[nH]c2ccccc12)C(=O)N[C@H](CO)C(=O)N[C@H](C)C(=O)N[C@H](Cc1ccc(O)cc1)C(=O)N[C@H](CCCCN)C(=O)N[C@H](Cc1c[nH]cn1)C(=O)N[C@H](CCCNC(=N)N)C(=O)N[C@H](CCCCN)C(=O)N[C@@H](C(=O)N[C@@H](C(N)=O)[C@H](C)CC)[C@H](C)O)[C@H](C)CC)[C@H](C)CC [D-6-C7] (Heptanoyl-[dL]G[dI][dK][dI][dL][dW][dS][dA][dY][dK][dH][dR][dK][dT][dI]-NH2) | – | – | 6.2 µM | 3.1 µM | 65 µM |
| 1 µg/mL | – | – | – | – | – | CNC(C)C1CCC(N)C(OC2C(N)CC(N)C(OC3OCC(C)(O)C(NC)C3O)C2O)O1 (stereo not drawn) [Gentamicin] | 1 µg/mL | – | – | – | – |
| – | – | 6.89 | 5.92 | 6.2 µM | 1.5 µM | CCCCCC(=O)N[C@@H](CC(C)C)C(=O)NCC(=O)N[C@@H](CC(C)C)C(=O)N[C@@H](CCCCN)C(=O)N[C@@H](CC(C)C)C(=O)N[C@@H](CC(C)C)C(=O)N[C@@H](Cc1c[nH]c2ccccc12)C(=O)N[C@@H](CO)C(=O)N[C@@H](C)C(=O)N[C@@H](Cc1ccc(O)cc1)C(=O)N[C@@H](CCCCN)C(=O)N[C@@H](Cc1c[nH]cn1)C(=O)N[C@@H](CCCNC(=N)N)C(=O)N[C@@H](CCCCN)C(=O)N[C@H](C(=O)N[C@@H](CC(C)C)C(N)=O)[C@@H](C)O [L-6-C6-Leu] (Hexanoyl-LGLKLLWSAYKHRKTL-NH2) | – | – | 6.2 µM | 3.1 µM | 60 µM |
| – | – | 6.80 | 5.45 | 6.2 µM | 3.1 µM | CCCCCC(=O)N[C@@H](CC(C)C)C(=O)NCC(=O)N[C@H](C(=O)N[C@@H](CCCCN)C(=O)N[C@H](C(=O)N[C@@H](CC(C)C)C(=O)N[C@@H](Cc1c[nH]c2ccccc12)C(=O)N[C@@H](CO)C(=O)N[C@@H](C)C(=O)N[C@@H](Cc1ccc(O)cc1)C(=O)N[C@@H](CCCCN)C(=O)N[C@@H](Cc1c[nH]cn1)C(=O)N[C@@H](CCCNC(=N)N)C(=O)N[C@@H](CCCCN)C(=O)N[C@H](C(=O)N[C@H](C(N)=O)[C@@H](C)CC)[C@@H](C)O)[C@@H](C)CC)[C@@H](C)CC [L-6-C6] (Hexanoyl-LGIKILWSAYKHRKTI-NH2) | – | – | 6.2 µM | 6.2 µM | > 100 µM |
| – | – | 6.92 | 5.96 | 6.2 µM | 1.5 µM | CCCCCCC(=O)N[C@@H](CC(C)C)C(=O)NCC(=O)N[C@@H](CC(C)C)C(=O)N[C@@H](CCCCN)C(=O)N[C@@H](CC(C)C)C(=O)N[C@@H](CC(C)C)C(=O)N[C@@H](Cc1c[nH]c2ccccc12)C(=O)N[C@@H](CO)C(=O)N[C@@H](C)C(=O)N[C@@H](Cc1ccc(O)cc1)C(=O)N[C@@H](CCCCN)C(=O)N[C@@H](Cc1c[nH]cn1)C(=O)N[C@@H](CCCNC(=N)N)C(=O)N[C@@H](CCCCN)C(=O)N[C@H](C(=O)N[C@@H](CC(C)C)C(N)=O)[C@@H](C)O [L-6-C7-Leu] (Heptanoyl-LGLKLLWSAYKHRKTL-NH2) | – | – | 6.2 µM | 1.5 µM | 30 µM |
| – | 0.062 µg/mL | – | – | – | – | CO[C@H]1/C=C/O[C@@]2(C)Oc3c(C)c(O)c4c(O)c(c(/C=N/N5CCN(C)CC5)c(O)c4c3C2=O)NC(=O)/C(C)=C\C=C\[C@H](C)[C@H](O)[C@@H](C)[C@@H](O)[C@@H](C)[C@H](OC(C)=O)[C@@H]1C [Rifampicin] | 100 µg/mL | 0.062 µg/mL | – | – | – |
